Experimental data published in ChEMBL document CHEMBL1124768 (1990).

Experiments:
Assay type in all cases: functional
Rattus norvegicus [1] = assay: Inhibitory activity was measured on carrageenan-induced paw edema at a dose of 100 mg/Kg at 4 hours after intraperitoneal administration in rats; conditions: ip
Rattus norvegicus [2] = assay: Inhibition of carrageenan-induced 4 hours after 50 mg/kg i.p. administration in rats.; conditions: ip, route intraperitoneal
Rattus norvegicus [3] = assay: Inhibitory activity was measured on carrageenan-induced paw edema at a dose of 25 mg/Kg at 4 hours after intraperitoneal administration in rats; conditions: ip

| Compound | inhibition in vivo at 100 mg/kg (Rattus norvegicus [1]) | inhibition in vivo at 50 mg/kg (Rattus norvegicus [2]) | inhibition in vivo at 25 mg/kg (Rattus norvegicus [3]) |
| --- | --- | --- | --- |
| CC(C)=NOCCC(=O)O | 35% | 21% | – |
| O=C(O)CCO/N=C/c1ccccc1 | – | 66% | 15% |
| C/C(=N\OCCC(=O)O)C1CC1 | – | 16% | – |
| CC/C(=N\OCCC(=O)O)c1ccccc1 | 20% | 28% | 19% |
| CCC(/C=N/OCCC(=O)O)CC | – | 0% | – |
| O=C(O)CCO/N=C/C1CCCCC1 | – | 0% | – |
| CCCC(CCC)=NOCCC(=O)O | – | 0% | – |
| C/C(=N\OCCC(=O)O)C1CCCCC1 | – | 0% | – |
| CC(C)C(=NOCCC(=O)O)C(C)C | – | 12% | – |
| O=C(O)CCON=C1c2ccccc2-c2ccccc21 | – | 0% | – |
| O=C(O)CCON=C(c1ccccc1)c1ccccc1 | – | 11% | – |
| O=C(O)CCO/N=C1/CC2CCC1C2 (stereo not drawn) | – | 16% | – |
| C/C(=N\OCCC(=O)O)c1ccccc1 | 31% | 40% | 23% |
| O=C(O)CCO/N=C/c1cccs1 | – | 0% | – |
| O=C(O)CCO/N=C\c1ccccc1 | – | 0% | – |
| O=C(O)CCON=C1C2CC3CC(C2)CC1C3 | – | 19% | – |
| O=C(O)CCO/N=C/c1ccco1 | – | 15% | – |
| CC/C(=N\OCCC(=O)O)C(C)C | < 27% | 35% | 21% |
| O=C(O)Cc1ccccc1Nc1c(Cl)cccc1Cl [DICLOFENAC] | – | 67% | 31% |
